Like-named read-outs stand apart in the source and are kept apart here.
Experiments:
[1] = tested on: STZ-induced type I diabetes mellitus (T1DM) C57BL/6 mice; experiment: Hypoglycemic effect, repeated administration (four times) to STZ-induced T1DM C57BL/6 mice (Example 5); type: in vivo; set-up: key to random blood glucose: random blood glucose in mmol/L, Mean±SEM
Procedure: SPF grade C57BL/6 mice were reared in a suitable rearing box in a barrier environment, with a rearing temperature of 20-26° C., a humidity of 40-70%, a time between day and night of 12 h/12 h, and the mice had free access to standard food and autoclaved sterilization water. After a 3-day quarantine period and a 2-day acclimation period, the mice were fasted for 12 h, and the mice were injected intraperitoneally with streptozotocin solution (STZ, 13 mg/mL, in citrate buffer) or citrate buffer at 130 mg/kg (control group). 3 Days and 7 days after administration of streptozotocin, random blood glucose and fasting blood glucose were detected, and the random blood glucose value above 25 mmol/L and fasting blood glucose value above 11.1 mmol/L were selected as T1DM model mice for follow-up experiments. On the day before administration, random blood glucose was monitored and mice were weighed. Mice were divided into 4 groups according to random blood glucose and body weight.
Subcutaneous administration (S.C.) was used to administer the corresponding vehicle or drug, once every 4-5 days, for a total of 4 administrations. During the experiment, the animals were allowed to eat and drink water freely. The random blood glucose before the first administration, and 0.25, 0.5, 1, 2, 4, 6, 8, 10, 24, 48, 72, and 96 h after administration were assessed, as well as the random blood glucose before the second, third and fourth administration, and 1, 2, 4, 6, 8, 24, 48, 72, 96 and 120 h after administration.
(§1) All raw data were entered into Excel files and expressed as Mean±SEM. Statistical analysis of data was performed using Graphpad Prism 7.0 software, one-way or two-way ANOVA comparison method, and P<0.05 was used as the criterion for significant differences.

normal C57BL/6 mice = experiment: Hypoglycemic effect, single subcutaneous administration to normal C57BL/6 mice; type: in vivo; set-up: blood glucose: unit not given here; conditions: for blood glucose: Mean ± SEM, n = 6
Procedure: SPF grade C57BL/6 mice were reared in a suitable rearing box in a barrier environment, with a rearing temperature of 20-26° C., a humidity of 40-70%, a time between day and night of 12 h/12 h, and the mice had free access to standard food and autoclaved sterilization water. After a 3-day quarantine period and a 2-day acclimation period, random blood glucose was measured and mice were weighed. Mice were divided into 6 groups according to random blood glucose and body weight.
Single subcutaneous administration (S.C.) was used to administer the corresponding vehicle or drug. The control group was administered the vehicle PBS without fasting during the whole process, and the animals were allowed to eat and drink freely. Random blood glucose values of C57 mice were measured before administration and at 0.25, 0.5, 1, 2, 4, 6, 8, 10, 24, 48, 54, 72 and 96 hours after administration.
as §1

[2] = mouse, in vivo, sc, 10 nmol/kg
[3] = rat, in vivo, iv, 10 nmol/kg
insulin receptor B = target: T1, insulin receptor B (Homo sapiens, UniProt P06213); experiment: Insulin receptor B autophosphorylation in transfected cells (Cisbio Phospho-IR beta Tyr1150/1151 kit); type: cell-based; conditions: for Relative HI activity: relative to human insulin
T1 construct: expressed in transfected cells
T1 sequence (P06213 28-758 limits assumed): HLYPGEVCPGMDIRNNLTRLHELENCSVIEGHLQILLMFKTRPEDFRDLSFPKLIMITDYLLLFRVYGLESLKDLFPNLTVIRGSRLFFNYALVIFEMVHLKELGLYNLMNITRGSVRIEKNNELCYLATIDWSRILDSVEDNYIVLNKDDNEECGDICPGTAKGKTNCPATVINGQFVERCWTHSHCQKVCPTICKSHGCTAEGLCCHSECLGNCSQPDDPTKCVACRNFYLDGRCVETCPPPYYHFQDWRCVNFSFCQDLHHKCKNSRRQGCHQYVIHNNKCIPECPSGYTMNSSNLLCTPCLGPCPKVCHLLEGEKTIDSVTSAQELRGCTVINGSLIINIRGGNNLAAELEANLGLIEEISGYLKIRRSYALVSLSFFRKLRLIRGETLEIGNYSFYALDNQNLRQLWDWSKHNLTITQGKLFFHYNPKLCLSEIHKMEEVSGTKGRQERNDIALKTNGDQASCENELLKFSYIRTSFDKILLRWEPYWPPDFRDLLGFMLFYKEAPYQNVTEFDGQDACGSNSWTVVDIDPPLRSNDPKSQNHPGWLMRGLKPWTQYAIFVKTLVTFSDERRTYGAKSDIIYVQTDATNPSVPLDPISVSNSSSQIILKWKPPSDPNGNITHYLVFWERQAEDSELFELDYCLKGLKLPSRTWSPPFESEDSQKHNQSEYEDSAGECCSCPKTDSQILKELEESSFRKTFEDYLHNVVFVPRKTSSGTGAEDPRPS
T1 sequence (P06213 763-1382 partner limits assumed): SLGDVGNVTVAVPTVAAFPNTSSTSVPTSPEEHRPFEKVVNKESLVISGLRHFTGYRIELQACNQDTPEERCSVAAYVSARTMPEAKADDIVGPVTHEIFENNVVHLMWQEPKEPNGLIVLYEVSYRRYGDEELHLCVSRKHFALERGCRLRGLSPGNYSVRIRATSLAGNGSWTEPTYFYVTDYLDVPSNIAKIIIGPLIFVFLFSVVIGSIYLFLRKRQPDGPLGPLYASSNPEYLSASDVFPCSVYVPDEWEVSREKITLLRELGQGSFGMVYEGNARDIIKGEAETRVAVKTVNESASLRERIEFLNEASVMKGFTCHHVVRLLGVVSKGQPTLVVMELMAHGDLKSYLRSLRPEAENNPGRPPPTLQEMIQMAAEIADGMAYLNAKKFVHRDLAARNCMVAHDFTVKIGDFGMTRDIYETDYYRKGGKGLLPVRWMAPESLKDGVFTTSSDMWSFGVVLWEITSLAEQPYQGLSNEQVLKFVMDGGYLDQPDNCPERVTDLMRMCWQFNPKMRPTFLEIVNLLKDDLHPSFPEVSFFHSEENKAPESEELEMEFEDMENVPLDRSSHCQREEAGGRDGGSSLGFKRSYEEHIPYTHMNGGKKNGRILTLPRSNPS
Procedure: The phosphorylation level of insulin receptor B was detected by Cisbio's Phospho-IR beta (Tyr1150/1151) kit method to evaluate the biological activity of insulin. The cells were seeded into a 96-well plate overnight, and after the serum in the medium was removed, 40 μl of serum-free medium was added to culture for about 4 h. Then a dilution series of insulin derivatives were prepared with blank solution (0.6% casein, 0.06 mg/mL EDTA, 1×DPBS) and incubated with cells in the 96-well plate for 5 min in a CO2 incubator (37° C., 5% CO2). The liquid in the 96-well plate was poured off, 100 µL of a mixture of lysis buffer (2% Triton X-100, 150 mM NaCl, 50 mM HEPES, pH=7) and inhibitor (Blocking Reagent in the kit) was added to lyse the cells, then the plate was shaken at 350 rpm for 30 min. Relative activity (in percent (%)) was assessed by measuring insulin receptor phosphorylation levels in the supernatant after cell lysis and fitting a curve to the data using nonlinear regression in Graphpad Prism 5 software. Related assays were also used, in which the blank solution also contained 1.5% HSA to simulate physiological conditions. Changes in the phosphorylation levels of the insulin-activated insulin receptors of the invention were detected as an indirect reflection of the albumin binding activity.

[4] = single S.C., Degludec 200 nmol/Kg, others 1400 nmol/Kg

With “A14E, B16E, B25H, B29K(N(ε)-COOH(CH2)18CO-L-Lys-CO(CH2)2CO—(OEG)2), desB30 human insulin analog [Insulin-a3]” the “glucose control effect and effective glucose control time compared with Insulin-a1” value ([1]; 1400 nmol/Kg S.C. four times) was “significantly better”, the “time after administration at which blood glucose reached the lowest level” value ([1]; 1400 nmol/Kg S.C., Insulin-a1 each administration, Insulin-a3 first and second administrations) was 24 h and the “time after administration at which blood glucose reached the normal level” value ([1]; 1400 nmol/Kg S.C., after the first and second administrations) was 96 h. The “time after administration at which blood glucose reached the normal level” value ([1]; 1400 nmol/Kg S.C., after the third and fourth administrations) was 120 h, the random blood glucose ([1]; Day 0 (1st administration), 1400 nmol/Kg S.C. four times) was 31.3 ± 3.1 and the random blood glucose ([1]; Day 1, 1400 nmol/Kg S.C. four times) was 17.4 ± 6.7. For the same substance, the random blood glucose ([1]; Day 4 (2nd administration), 1400 nmol/Kg S.C. four times) was 26.9 ± 8.0, the random blood glucose ([1]; Day 5, 1400 nmol/Kg S.C. four times) was 7.1 ± 3.8 and the random blood glucose ([1]; Day 9 (3rd administration), 1400 nmol/Kg S.C. four times) was 26.2 ± 7.9. For the same substance, the random blood glucose ([1]; Day 10, 1400 nmol/Kg S.C. four times) was 8.6 ± 5.7, the random blood glucose ([1]; Day 14 (4th administration), 1400 nmol/Kg S.C. four times) was 24.4 ± 5.7 and the random blood glucose ([1]; Day 18, 1400 nmol/Kg S.C. four times) was 19.7 ± 6.4. For the same substance, the “time the effective glucose control effect can be maintained” value ([1]; repeated administration, C57BL6 mice modeled by STZ) was 4-5 days/time, the blood glucose (normal C57BL/6 mice; 0 h (before administration), single S.C., Degludec 200 nmol/Kg, others 1400 nmol/Kg) was 8.0 ± 1.0 and the blood glucose (normal C57BL/6 mice; 0.25 h after single S.C., Degludec 200 nmol/Kg, others 1400 nmol/Kg) was 8.6 ± 1.0. For the same substance, the blood glucose (normal C57BL/6 mice; 0.5 h after single S.C., Degludec 200 nmol/Kg, others 1400 nmol/Kg) was 6.2 ± 0.4, the “blood glucose compared with the control group” value (normal C57BL/6 mice; 1 h after single S.C. administration) was “decreased significantly” and the blood glucose (normal C57BL/6 mice; 1 h after single S.C., Degludec 200 nmol/Kg, others 1400 nmol/Kg) was 4.9 ± 0.8. The blood glucose (normal C57BL/6 mice; 2 h after single S.C., Degludec 200 nmol/Kg, others 1400 nmol/Kg) was 4.5 ± 1.0, the blood glucose (normal C57BL/6 mice; 4 h after single S.C., Degludec 200 nmol/Kg, others 1400 nmol/Kg) was 3.9 ± 0.7 and the blood glucose (normal C57BL/6 mice; 6 h after single S.C., Degludec 200 nmol/Kg, others 1400 nmol/Kg) was 3.7 ± 0.5. For the same substance, the blood glucose (normal C57BL/6 mice; 8 h after single S.C., Degludec 200 nmol/Kg, others 1400 nmol/Kg) was 3.8 ± 0.5, the blood glucose (normal C57BL/6 mice; 10 h after single S.C., Degludec 200 nmol/Kg, others 1400 nmol/Kg) was 3.5 ± 0.7 and the blood glucose (normal C57BL/6 mice; 24 h after single S.C., Degludec 200 nmol/Kg, others 1400 nmol/Kg) was 2.9 ± 1.0. It also gave a blood glucose (normal C57BL/6 mice; 48 h after single S.C., Degludec 200 nmol/Kg, others 1400 nmol/Kg) of 4.2 ± 2.0, a blood glucose (normal C57BL/6 mice; 72 h after single S.C., Degludec 200 nmol/Kg, others 1400 nmol/Kg) of 5.4 ± 2.6 and a blood glucose (normal C57BL/6 mice; 96 h after single S.C., Degludec 200 nmol/Kg, others 1400 nmol/Kg) of 8.8 ± 1.1. The “effect on blood glucose control compared with Icodec” value (normal C57BL/6 mice; single S.C. 1400 nmol/Kg) was “slightly worse”, the “effective blood glucose control time” value (normal C57BL/6 mice; [4]) was 96 h and the “time after administration at which blood glucose reached the lowest level” value (normal C57BL/6 mice; [4]) was 24 h. The AUClast [2] was 12300 ng·h/mL, the T1/2 [2] was 18.6 h and the AUClast [3] was 9170 ng·h/mL. For the same substance, the T1/2 [3] was 11.2 ± 1.9 h, the EC50 (insulin receptor B; 0% HSA) was 0.213 µM and the “Relative HI activity” value (insulin receptor B; 0% HSA) was 0.58%. The EC50 (insulin receptor B; 1.5% HSA) was 4.49 µM, the “Relative 0% HSA activity” value (insulin receptor B; 1.5% HSA relative to 0% HSA) was 5.86% and the “Relative HI activity” value (insulin receptor B; 1.5% HSA) was 0.06%.

Source: patent publication US20240374692A1, “A NOVEL ACYLATED INSULIN ANALOG” (SUNSHINE LAKE PHARMA CO., LTD., priority 2021, published 2024)
